According to PubChem BioAssay AID330 (DTP/NCI, 2004):
Values joined by “and” are separate entries in the source; they are usually repeats but may differ in a detail not shown here. Equal values may be shown once. Inconclusive results and toxic doses are left out. Rule for the calls: active = survival T/C of 150% or more; inactive = T/C below 125% in these data.

Tested on: P388 leukemia ip, CD2F1 mice, survival T/C
Assay: NCI In Vivo Anticancer Drug Screen. Data for tumor model P388 Leukemia (intraperitoneal) in CD2F1 (CDF1) mice
Details: endpoint: median survival time, higher = longer survival
In short: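 Mice carrying the transplanted tumor received test compound or vehicle. Survival was recorded in each group, and the value is the treated-group measurement divided by that of the vehicle-treated control group.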

[1] = dose: 50.0 mg/kg/injection, schedule: Q01DX005 (ip), vehicle: Klucel (hydroxypropylcellulose) (HPC)
[2] = dose: 100.0 mg/kg/injection, schedule: Q01DX005 (ip), vehicle: Klucel (hydroxypropylcellulose) (HPC)
[3] = dose: 200.0 mg/kg/injection, schedule: Q01DX005 (ip), vehicle: Klucel (hydroxypropylcellulose) (HPC)

Measured: T/C

CC1CN=C(c2ccc(NC(=O)NCCCCCCCCCNC(=O)Nc3ccc(C4=NCC(C)N4)cc3)cc2)N1 (centres undefined)
inactive: dose: 12.5 mg/kg/injection, schedule: Q01DX005 (ip), vehicle: saline + Tween-80 + alcohol 106 % of control and 110 % of control | dose: 25.0 mg/kg/injection, schedule: Q01DX005 (ip), vehicle: saline + Tween-80 + alcohol 105 % of control and 118 % of control | dose: 50.0 mg/kg/injection, schedule: Q01DX005 (ip), vehicle: saline + Tween-80 + alcohol 110 % of control and 121 % of control | dose: 100.0 mg/kg/injection, schedule: Q01DX005 (ip), vehicle: saline + Tween-80 + alcohol 108 % of control

CC(C)CC(NC(=O)C(CS)NC(=O)CN1C(=O)CCC1=O)C(N)=O (centres undefined)
inactive: [1] 105 % of control | [2] 100 % of control | [3] 101 % of control

O=C1CSC(c2ccco2)N1c1nncs1 (centres undefined)
inactive: dose: 30.0 mg/kg/injection, schedule: Q01DX005 (ip), vehicle: Klucel (hydroxypropylcellulose) (HPC) 100 % of control | dose: 60.0 mg/kg/injection, schedule: Q01DX005 (ip), vehicle: Klucel (hydroxypropylcellulose) (HPC) 100 % of control | dose: 120.0 mg/kg/injection, schedule: Q01DX005 (ip), vehicle: Klucel (hydroxypropylcellulose) (HPC) 103 % of control | dose: 240.0 mg/kg/injection, schedule: Q01DX005 (ip), vehicle: Klucel (hydroxypropylcellulose) (HPC) 108 % of control

CCCCCCCCCCCCC1(O)OC(=O)C(C)=C1C (centres undefined)
inactive: dose: 12.5 mg/kg/injection, schedule: Q04DX003 (ip), vehicle: saline with Tween-80 108 % of control | dose: 25.0 mg/kg/injection, schedule: Q04DX003 (ip), vehicle: saline with Tween-80 102 % of control | dose: 50.0 mg/kg/injection, schedule: Q04DX003 (ip), vehicle: saline with Tween-80 106 % of control

Nc1cc2c3ccccc3ccc2c2ccccc12
inactive: dose: 25.0 mg/kg/injection, schedule: Q01DX005 (ip), vehicle: Klucel (hydroxypropylcellulose) (HPC) 104 % of control | [1] 107 % of control | [2] 109 % of control | [3] 105 % of control

CSc1nc2c(nnn2C2OCC(O)C(O)C2O)c(=O)n1C (centres undefined)
inactive: dose: 60.0 mg/kg/injection, schedule: Q01DX005 (ip), vehicle: saline with Tween-80 102 % of control | dose: 120.0 mg/kg/injection, schedule: Q01DX005 (ip), vehicle: saline with Tween-80 99 % of control | dose: 240.0 mg/kg/injection, schedule: Q01DX005 (ip), vehicle: saline with Tween-80 96 % of control

N#CC12C3C4C5C3C1C(C42)n1c(=O)n(-c2ccccc2)c(=O)n15 (centres undefined)
inactive: dose: 12.5 mg/kg/injection, schedule: Q01DX009 (ip), vehicle: Klucel (hydroxypropylcellulose) (HPC) 89 % of control and 90 % of control | dose: 25.0 mg/kg/injection, schedule: Q01DX009 (ip), vehicle: Klucel (hydroxypropylcellulose) (HPC) 89 % of control and 92 % of control | dose: 50.0 mg/kg/injection, schedule: Q01DX009 (ip), vehicle: Klucel (hydroxypropylcellulose) (HPC) 90 % of control and 95 % of control | dose: 100.0 mg/kg/injection, schedule: Q01DX009 (ip), vehicle: Klucel (hydroxypropylcellulose) (HPC) 98 % of control | dose: 200.0 mg/kg/injection, schedule: Q01DX009 (ip), vehicle: Klucel (hydroxypropylcellulose) (HPC) 95 % of control

C=C1C[C@@H]2[C@H](C1=O)[C@@H]1CC[C@H]3O[C@]31C2(C)C
inactive: dose: 50.0 mg/kg/injection, schedule: Q04DX002 (ip), vehicle: Klucel (hydroxypropylcellulose) (HPC) 106 % of control | dose: 100.0 mg/kg/injection, schedule: Q04DX002 (ip), vehicle: Klucel (hydroxypropylcellulose) (HPC) 101 % of control | dose: 200.0 mg/kg/injection, schedule: Q04DX002 (ip), vehicle: Klucel (hydroxypropylcellulose) (HPC) 100 % of control
